Results on 5 compounds are retold here after patent US20080311185A1, “Deregulated Genes and/or Processes in Inflammatory Arthritis” (priority 2005, published 2008).

Starred links: 1 amine or outer side, 2 acyl side, 3 side chain; linkers in the order of their positions; H or OH if unused. Positions of bridges follow the written chain, without caps; N, C: chain ends. Non-standard residues stand in square brackets, D forms with d. Residues, ends and D or L forms follow the SMILES beside them. Trp(2-yl) = O=C([C@H](Cc1c([*:3])[nH]c2ccccc12)N[*:1])[*:2]; Leu(4R-OH,5-OH) = C[C@](O)(CO)C[C@H](N)C(=O)O; cisHyp = O=C(O)[C@@H]1C[C@H](O)CN1

The subject of one test is HeLa cells. The conditions noted are these: Kulms et al, 2002; cited from earlier work.
In test [1] the test system is Tg197 synovial fibroblasts. The experiment in a line: Adhesion assay of Tg197 synovial fibroblasts after drug treatment. The note with it: drug treatment 2 h at 37° C., FIG. 8. Format: cell-based, mouse. As for the experimental part:
(§1) FIG. 8. Adhesion/Migration assays showing the effect of Lat-A on Tg197 actin-cytoskeleton properties.
Adhesion assays were performed on Cytometrix adhesion strips (Chemicon) coated with human fibronectin, vitronectin, laminin and collagen I, according to the manufacturer instructions.
(§2) Disruption of actin cytoskeleton was induced with 4 μg/ml of Latrunculin A (Sigma) for 2 h at 37° C. as previously described (Spector et al, 1989). As control of TNFα involvement in actin-cytoskeleton organisation 1 μg/ml of anti-TNF (Infliximab) was added on the cells for the same period of time.

The test system of test [2] is Tg197 synovial fibroblasts. The test is described as follows: Migration assay of Tg197 synovial fibroblasts after drug treatment. Format: cell-based, mouse. The conditions noted are these: drug treatment 2 h at 37° C., compare to Wt, FIG. 8. How it is done: as §1, §2
Test [3] relates to Tg197 synovial fibroblasts. The test is described as follows: Proliferation assay of Tg197 synovial fibroblasts after drug treatment. Format: cell-based, mouse. The note with it: FIG. 9. As for the experimental part:
FIG. 7. […] Mean averages of triplicates with mean background (adhesion to BSA) values subtracted. Representative experiment out of three (t-test; P<0.05). (C) DNA synthesis/proliferation assay in the presence or absence of 10% FBS, 48 h after treatment. Values represent [3H]Thymidine incorporation (×10^3). Mean average of triplicates (t test; P<0.05). (D) Assay of wound-healing treated with Mytomycin C for 2 h. Pictures were taken at Oh and 24 h after the wound (Oh not shown). (E) TNF cytotoxicity assay with cyclohexamide. After 24 h survival was determined using the crystal violet assay. (F) Apoptosis assay using 30-300 μM etoposide. (G) Apoptosis assay using 0.01-1 μM staurosporine.
as §2

Test [4] relates to Tg197 synovial fibroblasts. The experiment in a line: Apoptosis assay using staurosporine as inducer of cell death. In kind it is cell-based, mouse. The conditions noted are these: FIG. 10. How it is done: Confluent mouse synovial fibroblasts were washed twice with phosphate-buffered saline (PBS) and placed in DMEM without serum for 24 h. The following day 1.5×10^4 cells were plated into each well of a 96-well flat-bottom plate (Costar, Corning Inc.) in 100 μl of media plus serum. After 24 h, cells were treated with 12.5-100 ng/ml TNFα plus 0.5-3 μg/ml cyclohexamide (CHX), 30-300 μM Etoposide and 0.01-1 μM Staurosporine, for 24 h at 37° C. overnight. Cell survival was determined using the crystal violet assay. The absorbance at 570 nm was determined on a microplate reader (SPECTRAmax PLUS^384, Molecular Devices, Sunnyvale, Calif., USA), as previously described (Aidinis et al, 2003). Results are expressed as the means±S.E. of one representative experiment performed in triplicate. Statistical analysis was performed using Student's t test, with a level of significance set at p<0.05.
as §2

Consider `C=C1[C@@H](C)[C@H]2[C@H](Cc3ccccc3)NC(=O)[C@]23[C@H](OC(C)=O)/C=C/[C@@](C)(O)C(=O)[C@@H](C)C/C=C/[C@H]3[C@@H]1O` [Cytochalasin D], for which the “apoptosis in HeLa cells” value with HeLa cells is listed as “enhances apoptosis”.
As to `C/C1=C/C(=O)O[C@@H]2C[C@@H](CC[C@H](C)/C=C\C=C\CC1)O[C@@](O)([C@@H]1CSC(=O)N1)C2` [Lat-A, Latrunculin A], the “adhesion of TgSF's” value in test [1] is “decreased adhesion”. In test [2], the “migration of TgSF's” value is “migration seems to be increased”. The “proliferation levels of TgSFs” value in test [3] is reported as “decline lower even than the levels of WtSFs”. In test [4], the resistance to apoptosis entry is given as “decreased resistance to apoptosis at the levels of the Wt SFs”.
With `C[C@@H]1NC(=O)[C@H](C[C@@](C)(O)CO)NC(=O)[C@@H]2Cc3c([nH]c4ccccc34)SC[C@H](NC(=O)[C@@H]([C@H](C)O)NC1=O)C(=O)N1C[C@@H](O)C[C@H]1C(=O)N[C@@H](C)C(=O)N2` [phalloidin] (cyclo(A[dT]C[cisHyp]A[Trp(2-yl)][Leu(4R-OH,5-OH)]); thioether 3-6), in the test on HeLa cells, the “apoptosis in HeLa cells” value is recorded as “does not affect apoptosis”.
Regarding TNFα, in test [3], the “proliferation levels of TgSFs” value is “do not have an effect”.
Take “anti-TNF: anti-TNF (Infliximab), control of TNFα involvement in actin-cytoskeleton organisation”: the “adhesion of TgSF's” value in test [1] was “do not show altered adhesion/migration properties”. For the same compound, in test [2], the “migration of TgSF's” value was “do not show altered adhesion/migration properties”.
